# Results: patent US4628095A, “Substituted N-benzyl-4-(benzhydryl) piperidines” (G. D. Searle & Co., priority 1985, dated 1986)
# Experiments:
# [1] = system: spontaneously hypertensive rat (SHR); test: Anti-hypertensive activity, unanesthetized spontaneously hypertensive rat (SHR) assay, mean arterial blood pressure; type: in vivo
# Experimental: Male, unanesthetized spontaneously hypertensive rats, 11 to 16 weeks old were used in this test procedure. The compounds to be tested are administered intragastrically at a dose of 50 mg/kg or intraarterially/intraveneously at a dose of 10 mg/kg. or such other doses determined to be suitable for a specific test compound.
# Initial mean arterial blood pressure was measured directly via a previously implanted arterial catheter immediately before administration of the test compound. Blood pressure readings were made at 1, 2, 3, and 4 hours following administration of the test compound. […] Statistical comparisons were made using the paired Student's T test with two sided probability calculations.
# [2] = system: vascular smooth muscle (isolated thoracic aorta segments); test: Calcium antagonism in vascular smooth muscle, isolated thoracic aorta segments from male spontaneously hypertensive rat (pA2); type: cell-based; conditions: for pA2 (Ca++ antagonism): test compound 1×10^-6 M, one hour incubation, K+ (100 mM) depolarized, considered active if pA2 is 6.0 or greater; for active in the foregoing test (vascular calcium antagonism): reference drugs
# Experimental: Isolated thoracic aorta segments from the male spontaneously hypertensive rat were utilized in this test procedure.
# The excised aorta segment was mounted in a tissue bath containing modified Krebs solution. After depolarization of the tissue with potassium (100 mM), calcium, in cumulative concentrations of 1×10^-3 M, 3.2×10^-3 M, and 1×10^-2 M was injected into the bath to produce vascular smooth muscle contraction. The developed tension (in grams) is measured and control dose-response values obtained. After one hour of incubation with a test compound at 1×10^-6 M concentration, the same doses of calcium ions were repeated. The log dose-response curves of the control and after treatment were analyzed by linear regression. The pA2 value was calculated as a measure of calcium antagonism of the test compound. See Van Rossum, J. M., Arch. Int. Pharmacodyn, 143, 299-330, 1963.
# Calcium ions play an essential role in induction and maintenance of vascular smooth muscle contractility. In potassium depolarized vascular smooth muscle, calcium antagonists may block the entry of calcium ions into the cell or act by other mechanisms to inhibit the contractions induced by calcium ions. The inhibition of calcium ion-induced contraction of vascular smooth muscle is used to test compounds for vascular calcium antagonism. Cardiovascular diseases such as arrythmias, angina-pectoris, hypertension, and peripheral vascular disease may be causally related to abnormalities in cellular handling of calcium ions.
# [3] = reference drugs, dose not given
smiles,measurement,setting,value
"COC(=O)c1cc(N(C)C)ccc1CN1CCC(C(c2ccc(F)cc2)c2ccc(F)cc2)CC1 [Example 4, methyl 2-[[4-[bis(4-fluorophenyl)methyl]-1-piperidinyl]methyl]-5-(dimethylamino)benzoate]","SHR -mm Hg (dose), blood pressure change",[1]; 50 mpk-oral,-67 mm Hg
same,pA2 (Ca++ antagonism),"[2]; 60 min, 1 µM",7.78
"Clc1cccc(Cl)c1N=C1NCCN1 [Clonidine, reference compound]",active in the foregoing hypertensive rat assay,"[1]; rat, in vivo",active
"COc1ccc(CCN(C)CCCC(C#N)(c2ccc(OC)c(OC)c2)C(C)C)cc1OC (centres unmarked) [Verapamil, reference compound]",active in the foregoing test (vascular calcium antagonism),[2],active
"NNc1nncc2ccccc12 [Apresoline, reference compound]",active in the foregoing hypertensive rat assay,"[1]; rat, in vivo",active
"CN(C)c1ccc(CN2CCC(C(c3ccc(F)cc3)c3ccc(F)cc3)CC2)c(C(=O)NC(C)(C)C)c1 [Example 3, 2-[[4-[bis(4-fluorophenyl)methyl]-1-piperidinyl]methyl]-5-(dimethylamino)-N-(1,1-dimethylethyl)benzamide]","SHR -mm Hg (dose), blood pressure change",[1]; 50 mpk-oral,-54 mm Hg
same,pA2 (Ca++ antagonism),[2],inactive
"C[C@](N)(Cc1ccc(O)c(O)c1)C(=O)O [Aldomet, reference compound]",active in the foregoing hypertensive rat assay,[1]; [3],active
"CNC(=O)c1cc(N(C)C)ccc1CN1CCC(C(c2ccccc2)c2ccccc2)CC1 [Example 5, 5-(dimethylamino)-2-[[4-(diphenylmethyl)-1-piperidinyl]methyl]-N-methylbenzamide]","SHR -mm Hg (dose), blood pressure change",[1]; 10 mpk-i.v.,-56 mm Hg
same,pA2 (Ca++ antagonism),"[2]; 60 min, 1 µM",7.25
"COC(=O)c1cc(N(C)C)ccc1CN1CCC(C(c2ccccc2)c2ccccc2)CC1 [Example 11, methyl 5-(dimethylamino)-2-[[4-(diphenylmethyl)-1-piperidinyl]methyl]benzoate]","SHR -mm Hg (dose), blood pressure change",[1]; 50 mpk-oral,-34 mm Hg
same,pA2 (Ca++ antagonism),"[2]; 60 min, 1 µM",7.65
"COC(=O)C1=C(C)NC(C)=C(C(=O)OC)C1c1ccccc1[N+](=O)[O-] [nifedipine, reference compound]",active in the foregoing test (vascular calcium antagonism),[2],active
"C[C@H](CS)C(=O)N1CCC[C@H]1C(=O)O [Captopril, reference compound]",active in the foregoing hypertensive rat assay,[1]; [3],active
"COC(=O)c1cc(OC)ccc1CN1CCC(C(c2ccccc2)c2ccccc2)CC1 [Example 8, methyl 2-[[4-(diphenylmethyl)-1-piperidinyl]methyl]-5-methoxybenzoate]","SHR -mm Hg (dose), blood pressure change",[1]; 3-10 mpk-i.v.,-40 mm Hg
"CN(C)c1ccc(CN2CCC(C(c3ccccc3)c3ccccc3)CC2)c(C(=O)NC(C)(C)C)c1 [Example 6, 5-(dimethylamino)-N-(1,1-dimethylethyl)-2-[[4-(diphenylmethyl)-1-piperidinyl]methyl]benzamide]",SHR activity (in words),"[1]; dose not given, active if mean post treatment blood pressure differs from control, p <= 0.05",inactive
same,pA2 (Ca++ antagonism),"[2]; 60 min, 1 µM",7.20
"COc1ccc([C@@H]2Sc3ccccc3N(CCN(C)C)C(=O)[C@@H]2OC(C)=O)cc1 [diltiazem, reference compound]",active in the foregoing test (vascular calcium antagonism),[2],active
CN(C)c1ccc(C[N+]2([O-])CCC(C(c3ccccc3)c3ccccc3)CC2)cc1 (centres unmarked) [Example 9],"SHR -mm Hg (dose), blood pressure change",[1]; 50 mpk-oral,-48 mm Hg
same,pA2 (Ca++ antagonism),[2],inactive
